Assay results: US20100267561A1, “HERBICIDAL PYRIDAZINONE DERIVATIVES” (priority 2007, published 2010)

Legend:
Assay in all cases: Test B pre-/postemergence plant response
Assay type in all cases: in vivo
[1] = system: pigweed (Amaranthus retroflexus)
How it was run: (§1)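 Preemergence and postemergence (plants 2-18 cm, 1- to 4-leaf stage) applications used test chemicals in a non-phytotoxic solvent with surfactant. Plants were held in a greenhouse 13 to 15 days, then rated visually against controls on a 0-100 scale (0 no effect, 100 complete control).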

corn (Zea mays) = system: corn (Zea mays)
How it was run: as §1

kochia (Kochia scoparia) = conditions: for Kochia plant response rating: postemergence, 0-100 scale; for Plant response rating, Kochia: Postemergence
How it was run: as §1

[2] = system: blackgrass (Alopecurus myosuroides); conditions: for Blackgrass plant response rating: 8 g ai/ha
How it was run: as §1

[3] = system: surinam grass (Brachiaria decumbens)
How it was run: as §1

[4] = system: catchweed bedstraw (Galium aparine); conditions: Preemergence; for Galium plant response rating: scale 0 to 100
How it was run: as §1

[5] = system: downy bromegrass (Bromus tectorum); conditions: for Bromegrass, Downy plant response rating: 8 g ai/ha
How it was run: as §1

[6] = system: johnsongrass (Sorghum halepense)
How it was run: as §1

[7] = system: common (oilseed) sunflower (Helianthus annuus); conditions: Preemergence; for Sunflower plant response rating: scale 0 to 100
How it was run: as §1

[8] = system: green foxtail (Setaria viridis)
How it was run: as §1

[9] = system: eastern black (E.B.) nightshade (Solanum ptycanthum); conditions: Preemergence; for Nightshade, E. B. plant response rating: scale 0 to 100
How it was run: as §1

[10] = system: giant foxtail (Setaria faberii)
How it was run: as §1

[11] = system: morningglory (Ipomoea coccinea)
How it was run: as §1

[12] = system: woolly cupgrass (Eriochloa villosa)
How it was run: as §1

[13] = 8 g ai/ha, postemergence, 0-100 scale
[14] = 16 g ai/ha, postemergence, 0-100 scale
[15] = Postemergence, 31 g ai/ha, scale 0 to 100
[16] = Postemergence, 62 g ai/ha, scale 0 to 100, 0 no effect, 100 complete control
[17] = Preemergence, 31 g ai/ha, scale 0 to 100 (0 no effect, 100 complete control)
[18] = Preemergence, 62 g ai/ha, 0 to 100 scale, 0 no effect, 100 complete control
[19] = Preemergence, 8 g ai/ha, scale 0 to 100
[20] = Preemergence, 16 g ai/ha, scale 0 to 100
[21] = Postemergence, 16 g ai/ha, scale 0 to 100
[22] = Preemergence, 16 g ai/ha, scale 0 to 100 (0 no effect, 100 complete control)
[23] = 31 g ai/ha, scale 0 to 100 (0 no effect, 100 complete control)
[24] = 62 g ai/ha, 0 to 100 scale, 0 no effect, 100 complete control

## CCc1cc(-c2ccc(Br)cc2)nn1-c1c(O)c(C)nn(C)c1=O [Compound 74]
[1]; [13]
  Pigweed plant response rating: 0
[1]; [14]
  Pigweed plant response rating: 0
[1]; [15]
  Plant response rating, Pigweed: 0
[1]; [16]
  Plant response rating, Pigweed: 0
[1]; [17]
  Plant response rating, Pigweed: 0
[1]; [18]
  Plant response rating, Pigweed: 20
[1]; [19]
  Pigweed plant response rating: 0
[1]; [20]
  Pigweed plant response rating: 0
Corn (Zea mays); [13]
  Corn plant response rating: 98
Corn (Zea mays); [21]
  Plant response rating, Corn: 100
Corn (Zea mays); [15]
  Plant response rating, Corn: 100
Corn (Zea mays); [16]
  Plant response rating, Corn: 100
Corn (Zea mays); [17]
  Plant response rating, Corn: 90
Corn (Zea mays); [18]
  Plant response rating, Corn: 98
Corn (Zea mays); [19]
  Corn plant response rating: 75
Corn (Zea mays); [20]
  Corn plant response rating: 80
Kochia (Kochia scoparia); 8 g ai/ha
  Kochia plant response rating: 0
Kochia (Kochia scoparia); 16 g ai/ha
  Kochia plant response rating: 0
Kochia (Kochia scoparia); 31 g ai/ha, scale 0 to 100
  Plant response rating, Kochia: 0
Kochia (Kochia scoparia); 62 g ai/ha, scale 0 to 100, 0 no effect, 100 complete control
  Plant response rating, Kochia: 0
[2]; postemergence, 0-100 scale
  Blackgrass plant response rating: 90
[2]; [21]
  Plant response rating, Blackgrass: 95
[2]; [15]
  Plant response rating, Blackgrass: 98
[2]; [16]
  Plant response rating, Blackgrass: 100
[2]; [22]
  Plant response rating, Blackgrass: 100
[2]; [17]
  Plant response rating, Blackgrass: 100
[2]; [18]
  Plant response rating, Blackgrass: 100
[2]; Preemergence, scale 0 to 100
  Blackgrass plant response rating: 85
[3]; [13]
  Surinam Grass plant response rating: 85
[3]; [14]
  Surinam Grass plant response rating: 100
[3]; [15]
  Plant response rating, Surinam Grass: 100
[3]; [16]
  Plant response rating, Surinam Grass: 100
[3]; [17]
  Plant response rating, Surinam Grass: 100
[3]; [18]
  Plant response rating, Surinam Grass: 100
[3]; [19]
  Surinam Grass plant response rating: 100
[3]; [20]
  Surinam Grass plant response rating: 100
[4]; [23]
  Plant response rating, Galium: 0
[4]; [24]
  Plant response rating, Galium: 0
[4]; 8 g ai/ha
  Galium plant response rating: 0
[4]; 16 g ai/ha
  Galium plant response rating: 0
[5]; postemergence, 0-100 scale
  Bromegrass, Downy plant response rating: 10
[5]; [21]
  Plant response rating, Bromegrass, Downy: 40
[5]; [15]
  Plant response rating, Bromegrass, Downy: 50
[5]; [16]
  Plant response rating, Bromegrass, Downy: 60
[5]; [22]
  Plant response rating, Bromegrass, Downy: 85
[5]; [17]
  Plant response rating, Bromegrass, Downy: 85
[5]; [18]
  Plant response rating, Bromegrass, Downy: 85
[5]; Preemergence, scale 0 to 100
  Bromegrass, Downy plant response rating: 30
[6]; [13]
  Johnsongrass plant response rating: 98
[6]; [14]
  Johnsongrass plant response rating: 98
[6]; [15]
  Plant response rating, Johnsongrass: 100
[6]; [16]
  Plant response rating, Johnsongrass: 100
[6]; [17]
  Plant response rating, Johnsongrass: 90
[6]; [18]
  Plant response rating, Johnsongrass: 100
[6]; [19]
  Johnsongrass plant response rating: 70
[6]; [20]
  Johnsongrass plant response rating: 85
[7]; [23]
  Plant response rating, Sunflower: 0
[7]; [24]
  Plant response rating, Sunflower: 0
[7]; 8 g ai/ha
  Sunflower plant response rating: 0
[7]; 16 g ai/ha
  Sunflower plant response rating: 0
[8]; [13]
  Foxtail, Green plant response rating: 85
[8]; [21]
  Plant response rating, Foxtail, Green: 95
[8]; [15]
  Plant response rating, Foxtail, Green: 98
[8]; [16]
  Plant response rating, Foxtail, Green: 100
[8]; [17]
  Plant response rating, Foxtail, Green: 100
[8]; [18]
  Plant response rating, Foxtail, Green: 100
[8]; [19]
  Foxtail, Green plant response rating: 100
[8]; [20]
  Foxtail, Green plant response rating: 100
[9]; [23]
  Plant response rating, Nightshade, E. B.: 0
[9]; [24]
  Plant response rating, Nightshade, E. B.: 65
[9]; 8 g ai/ha
  Nightshade, E. B. plant response rating: 0
[9]; 16 g ai/ha
  Nightshade, E. B. plant response rating: 0
[10]; [13]
  Foxtail, Giant plant response rating: 80
[10]; [21]
  Plant response rating, Foxtail, Giant: 85
[10]; [15]
  Plant response rating, Foxtail, Giant: 95
[10]; [16]
  Plant response rating, Foxtail, Giant: 98
[10]; [17]
  Plant response rating, Foxtail, Giant: 100
[10]; [18]
  Plant response rating, Foxtail, Giant: 100
[10]; [19]
  Foxtail, Giant plant response rating: 80
[10]; [20]
  Foxtail, Giant plant response rating: 98
[11]; [13]
  Morningglory plant response rating: 0
[11]; [14]
  Morningglory plant response rating: 0
[11]; [15]
  Plant response rating, Morningglory: 0
[11]; [16]
  Plant response rating, Morningglory: 0
[11]; [17]
  Plant response rating, Morningglory: 0
[11]; [18]
  Plant response rating, Morningglory: 0
[11]; [19]
  Morningglory plant response rating: 0
[11]; [20]
  Morningglory plant response rating: 0
[12]; [13]
  Cupgrass, Woolly plant response rating: 85
[12]; [21]
  Plant response rating, Cupgrass, Woolly: 90
[12]; [15]
  Plant response rating, Cupgrass, Woolly: 90
[12]; [16]
  Plant response rating, Cupgrass, Woolly: 98
[12]; [17]
  Plant response rating, Cupgrass, Woolly: 98
[12]; [18]
  Plant response rating, Cupgrass, Woolly: 100
[12]; [19]
  Cupgrass, Woolly plant response rating: 65
[12]; [20]
  Cupgrass, Woolly plant response rating: 95
